Measured values: patent US9334263B2, “Compositions useful for treating disorders related to kit” (BLUEPRINT MEDICINES CORPORATION, priority 2013, dated 2016)

Tests used:
PDGFRA D842V = molecular target: T1, PDGFRA D842V (Homo sapiens, UniProt P16234, D842V); assay: PDGFRA D842V assay at Km (Caliper electrophoretic mobility shift); type: biochemical; conditions: 15 uM ATP, 25 C, 90 minutes; read-out: PDFGRA D842V
T1 construct: purchased ProQinase 0761-0000-1
Description: (§1) In order to assess the activity of chemical compounds against the relevant kinase of interest, the Caliper LifeSciences electrophoretic mobility shift technology platform is used. Fluorescently labeled substrate peptide is incubated in the presence of kinase and ATP so that a […] proportion of the peptide is phosphorylated. At the end of the reaction, the mix of phosphorylated (product) and non-phosphorylated (substrate) peptides are passed through the microfluidic system of the Caliper EZ Reader 2, under an applied potential difference. The presence of the phosphate group on the product peptide provides a difference in mass and charge between those of the substrate peptide, resulting in a separation of the substrate and product pools in the sample. As the pools pass a LEDS within the instrument, these pools are detected and resolved as separate peaks. The ratio between these peaks therefore reflects the activity of the chemical matter at that concentration in that well, under those conditions.
(§2) The reaction was stopped by the addition of 70 ul of Stop buffer (100 mM HEPES pH 7.5, 0.015% Brij 35, 35 mM EDTA and 0.2% of Coating Reagent 3 (Caliper Lifesciences)). The plate was then read on a Caliper EZReader 2 (protocol settings: −1.9 psi, upstream voltage −500, downstream voltage −3000, post sample sip 38 s).

[1] = molecular target: T2, Kit D816V (HMC1.2 cells, Kit V560G and D816V) (Homo sapiens, UniProt P10721, D816V/V560G); assay: HMC1.2 autophosphorylation assay (AlphaLISA, phospho-Y719 c-Kit); type: cell-based; conditions: Kit autophosphorylation at tyrosine 719, 90 minutes, read-out: Cellular Activity
T2 construct: endogenous in cells; host or cells: HMC1.2 cells
T2 sequence (P10721 26-976 V560G/D816V): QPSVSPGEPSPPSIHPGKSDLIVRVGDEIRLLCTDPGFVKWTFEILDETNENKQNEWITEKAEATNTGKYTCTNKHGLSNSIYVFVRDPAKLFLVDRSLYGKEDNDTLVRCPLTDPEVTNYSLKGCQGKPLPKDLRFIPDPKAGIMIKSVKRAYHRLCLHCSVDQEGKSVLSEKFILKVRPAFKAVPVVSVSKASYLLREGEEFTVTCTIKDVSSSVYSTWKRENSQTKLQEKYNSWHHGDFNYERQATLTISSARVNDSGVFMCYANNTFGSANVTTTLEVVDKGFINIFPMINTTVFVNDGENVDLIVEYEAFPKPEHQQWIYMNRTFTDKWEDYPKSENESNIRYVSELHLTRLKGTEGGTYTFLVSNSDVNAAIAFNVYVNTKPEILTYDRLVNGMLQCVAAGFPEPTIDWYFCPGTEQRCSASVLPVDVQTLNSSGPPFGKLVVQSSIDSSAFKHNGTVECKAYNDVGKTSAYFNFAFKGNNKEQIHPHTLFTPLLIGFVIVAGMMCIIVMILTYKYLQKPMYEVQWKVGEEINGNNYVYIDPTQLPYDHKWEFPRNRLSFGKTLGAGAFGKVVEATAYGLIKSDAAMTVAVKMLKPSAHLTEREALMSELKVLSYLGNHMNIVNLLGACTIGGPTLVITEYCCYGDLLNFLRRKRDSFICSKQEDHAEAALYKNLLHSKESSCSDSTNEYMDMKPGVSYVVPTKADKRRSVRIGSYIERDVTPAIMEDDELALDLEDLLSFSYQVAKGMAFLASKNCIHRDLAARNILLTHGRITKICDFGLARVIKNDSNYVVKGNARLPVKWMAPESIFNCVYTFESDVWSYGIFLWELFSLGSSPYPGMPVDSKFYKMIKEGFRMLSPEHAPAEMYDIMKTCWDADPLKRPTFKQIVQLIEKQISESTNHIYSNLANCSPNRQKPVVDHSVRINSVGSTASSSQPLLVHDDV
Summary of the method: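 AlphaScreen signal comes from lysed HMC1.2 cells incubated with phospho-Y719 and total c-Kit antibodies (15 nM final), acceptor beads and then streptavidin donor beads, 2 h each at room temperature. Beforehand, cells deprived of serum overnight received compound for 90 min as a 10-point series, 25 uM–95.4 pM, 0.25% DMSO.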

D816V Kit = molecular target: T3, D816V Kit (Homo sapiens, UniProt P10721, D816V); assay: Kit D816V assay at Km (Caliper electrophoretic mobility shift); type: biochemical; conditions: 15 uM ATP, 25 C, 90 minutes
T3 construct: purchased Carna Bioscience 08-156
T3 sequence (P10721 26-976 D816V): as the sequence (P10721 26-976 V560G/D816V) above, with G535V counted along it
Summary of the method: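 Read-out is the ratio of phosphorylated to unphosphorylated fluorescent peptide, resolved by mobility shift on a Caliper EZ Reader 2.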

wild type Kit = molecular target: T4, wild type Kit (Homo sapiens, UniProt P10721); assay: Kit wild type assay at Km (Caliper electrophoretic mobility shift); type: biochemical; conditions: 400 uM ATP, 25 C, 90 minutes; read-out: WT KIT
T4 construct: purchased Carna Bioscience 08-156
T4 sequence (P10721 26-976): as the sequence (P10721 26-976 V560G/D816V) above, with G535V, V791D counted along it
Description: as §1
as §2, with “−700,” for “−500,”, “35” for “38”

T1 sequence (P16234 24-1089 D842V): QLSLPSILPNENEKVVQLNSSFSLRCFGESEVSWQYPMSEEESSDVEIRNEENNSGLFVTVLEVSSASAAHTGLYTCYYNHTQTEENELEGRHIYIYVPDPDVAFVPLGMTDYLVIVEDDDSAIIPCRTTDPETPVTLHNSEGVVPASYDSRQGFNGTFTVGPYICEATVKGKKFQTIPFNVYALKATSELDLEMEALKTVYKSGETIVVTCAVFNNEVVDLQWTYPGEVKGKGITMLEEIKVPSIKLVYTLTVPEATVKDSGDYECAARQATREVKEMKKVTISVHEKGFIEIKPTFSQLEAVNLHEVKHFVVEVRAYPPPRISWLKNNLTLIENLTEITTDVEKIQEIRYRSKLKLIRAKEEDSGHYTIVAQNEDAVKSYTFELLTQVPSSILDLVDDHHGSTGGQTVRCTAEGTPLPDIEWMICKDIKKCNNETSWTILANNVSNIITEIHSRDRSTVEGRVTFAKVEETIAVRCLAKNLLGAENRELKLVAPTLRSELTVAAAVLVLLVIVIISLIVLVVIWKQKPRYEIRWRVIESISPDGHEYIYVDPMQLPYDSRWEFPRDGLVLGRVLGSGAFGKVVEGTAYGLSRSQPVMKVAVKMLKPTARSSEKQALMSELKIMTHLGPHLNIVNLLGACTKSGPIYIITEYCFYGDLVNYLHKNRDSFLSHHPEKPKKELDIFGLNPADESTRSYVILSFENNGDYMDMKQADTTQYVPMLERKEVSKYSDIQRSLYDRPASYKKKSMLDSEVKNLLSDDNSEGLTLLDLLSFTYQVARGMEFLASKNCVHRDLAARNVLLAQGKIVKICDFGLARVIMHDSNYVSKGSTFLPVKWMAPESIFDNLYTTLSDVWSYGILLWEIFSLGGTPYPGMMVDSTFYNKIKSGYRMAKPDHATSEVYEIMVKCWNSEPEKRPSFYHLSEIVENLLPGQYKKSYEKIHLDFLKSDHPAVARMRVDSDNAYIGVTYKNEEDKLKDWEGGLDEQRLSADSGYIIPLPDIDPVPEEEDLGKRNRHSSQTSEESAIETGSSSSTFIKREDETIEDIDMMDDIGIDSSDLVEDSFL

| Compound | IC50 (PDGFRA D842V) [nM] | IC50 [1] [nM] | IC50 (D816V Kit) [nM] | IC50 (wild type Kit) [nM] |
| --- | --- | --- | --- | --- |
| CN1CCN(Cc2cccc(Nc3ncnc(N4CCN(c5ncc(Cc6ccccc6)cn5)CC4)n3)c2)CC1 [Compound 211] | 1.01 to 10 | 10 to 100 | < 1 |  |
| C[C@]1(O)CCCN(c2ccc(Nc3ncnc(N4CCN(c5ncc(Cc6ccccc6)cn5)CC4)n3)cc2)C1 (single isomer, unassigned) [Compound 226] | 1.01 to 10 | 10 to 100 | 1.01 to 10 |  |
| OC[C@H](O)c1ccc(Nc2ncnc(N3CCN(c4ncc(Cc5ccccc5)cn4)CC3)n2)cc1 (single isomer, unassigned) [Compound 57] | 1.01 to 10 | 10 to 100 | < 1 |  |
| CC(C)(O)Cn1cc(Nc2ncnc(N3CCN(c4ncc(Sc5ccc(F)cc5)cn4)CC3)n2)cn1 [Compound 149] | 1.01 to 10 | 10 to 100 | < 1 |  |
| OC[C@@H](O)c1ccc(Nc2ncnc(N3CCN(c4ncc(Cc5ccccc5)cn4)CC3)n2)cc1 (single isomer, unassigned) [Compound 56] | < 1 | 10 to 100 | < 1 |  |
| CN1CCN(c2ccc(Nc3ncnc(N4CCN(c5ncc(Cc6ccccc6)cn5)CC4)n3)cc2F)CC1 [Compound 237] |  | 10 to 100 | < 1 | 11 to 100 |
| NS(=O)(=O)c1ccc(Nc2ncnc(N3CCN(c4ncc(Cc5ccccc5)cn4)CC3)n2)cc1 [Compound 96] |  | 100 to 1000 | < 1 | 11 to 100 |
| OC[C@H]1CCCN1c1ccc(Nc2ncnc(N3CCN(c4ncc(Cc5ccccc5)cn4)CC3)n2)cc1 [Compound 167] |  | 10 to 100 | 1.01 to 10 | 100 to 1000 |
| FC(F)(F)CN1CCc2ccc(Nc3ncnc(N4CCN(c5ncc(Cc6ccccc6)cn5)CC4)n3)cc2C1 [Compound 268] |  | 100 to 1000 | 1.01 to 10 | 100 to 1000 |
| C[C@H](O)Cn1cc(Nc2ncnc(N3CCN(c4ncc(Sc5ccc(F)cc5)cn4)CC3)n2)cn1 [Compound 101] | < 1 | < 10 | < 1 |  |
| CN1CCC[C@@H]1COc1ccc(Nc2ncnc(N3CCN(c4ncc(Cc5ccccc5)c(N)n4)CC3)n2)cc1 [Compound 265] |  | < 10 | < 1 | < 10 |
| CC(C)(c1ccccc1)c1cnc(N2CCN(c3ncnc(Nc4ccc(N5CCC[C@@H](O)C5)cc4)n3)CC2)nc1 [Compound 263] | 1.01 to 10 | 10 to 100 | 1.01 to 10 |  |
| OC[C@@H]1CCCN1c1ccc(Nc2ncnc(N3CCN(c4ncc(Cc5ccccc5)cn4)CC3)n2)cc1 [Compound 168] |  | 10 to 100 | 1.01 to 10 | 11 to 100 |
| CN1CCC[C@H]1COc1ccc(Nc2ncnc(N3CCN(c4ncc(Cc5ccccc5)c(N)n4)CC3)n2)cc1 [Compound 266] |  | < 10 | < 1 | < 10 |
| NS(=O)(=O)c1cccc(Nc2ncnc(N3CCN(c4ncc(Cc5ccccc5)cn4)CC3)n2)c1 [Compound 95] |  | 1000 to 10000 | < 1 | 11 to 100 |
| O[C@@H]1CCCN(c2ccc(Nc3ncnc(N4CCN(c5ncc(Cc6ccc(F)cc6)cn5)CC4)n3)cc2)C1 [Compound 239] | 1.01 to 10 | 10 to 100 | 1.01 to 10 |  |
| OCc1ccc(Nc2ncnc(N3CCN(c4ncc(Cc5ccccc5)cn4)CC3)n2)cc1 [Compound 16] |  | 100 to 1000 | < 1 | 11 to 100 |
| COCCN1CCc2ccc(Nc3ncnc(N4CCN(c5ncc(Cc6ccccc6)cn5)CC4)n3)cc2C1 [Compound 215] |  | 10 to 100 | < 1 | < 10 |
| CC(C)(O)c1cccc(Nc2ncnc(N3CCN(c4ncc(Cc5ccccc5)cn4)CC3)n2)c1 [Compound 50] |  | 1000 to 10000 | 1.01 to 10 | 11 to 100 |
| CN1CCC[C@@H](Oc2ccc(Nc3ncnc(N4CCN(c5ncc(Cc6ccccc6)cn5)CC4)n3)cc2)C1 [Compound 216] |  | < 10 | < 1 | < 10 |
| CC(=O)c1cccc(Nc2ncnc(N3CCN(c4ncc(Cc5ccccc5)cn4)CC3)n2)c1 [Compound 22] |  | 100 to 1000 | 1.01 to 10 | 100 to 1000 |
| CS(=O)(=O)c1ccc(Nc2ncnc(N3CCN(c4ncc(Cc5ccccc5)c(O)n4)CC3)n2)cc1 [Compound 143] |  | 100 to 1000 | 1.01 to 10 | 11 to 100 |
| CC(O)c1cccc(Nc2ncnc(N3CCN(c4ncc(Cc5ccccc5)cn4)CC3)n2)c1 (stereo not shown) [Compound 26] |  | 100 to 1000 | 1.01 to 10 | 11 to 100 |

Other lines, results leading:

| IC50 (PDGFRA D842V) [nM] | IC50 [1] [nM] | IC50 (D816V Kit) [nM] | IC50 (wild type Kit) [nM] | Compound |
| --- | --- | --- | --- | --- |
| < 1 | 10 to 100 | < 1 | < 10 | c1ccc(Cc2cnc(N3CCN(c4ncnc(Nc5cnn(C[C@@H]6CNCCO6)c5)n4)CC3)nc2)cc1 [Compound 124] |
| < 1 | 10 to 100 | < 1 | < 10 | c1ccc(Cc2cnc(N3CCN(c4ncnc(Nc5cnn([C@H]6CCNC6)c5)n4)CC3)nc2)cc1 [Compound 52] |
| < 1 | 10 to 100 | < 1 | < 10 | c1ccc(Cc2cnc(N3CCN(c4ncnc(Nc5cnn(CC6CCNCC6)c5)n4)CC3)nc2)cc1 [Compound 116] |
|  | 10 to 100 | < 1 | < 10 | c1ccc(Cc2cnc(N3CCN(c4ncnc(Nc5ccc6c(c5)CNCCO6)n4)CC3)nc2)cc1 [Compound 76] |
|  | 10 to 100 | < 1 | < 10 | CN1CCO[C@H](Cn2cc(Nc3ncnc(N4CCN(c5ncc(Cc6ccccc6)cn5)CC4)n3)cn2)C1 [Compound 181] |
|  | < 10 | < 1 | < 10 | FC1(Cn2cc(Nc3ncnc(N4CCN(c5ncc(Cc6ccccc6)cn5)CC4)n3)cn2)CCNCC1 [Compound 191] |
|  | 10 to 100 | < 1 | 11 to 100 | c1ccc(Cc2cnc(N3CCN(c4ncnc(Nc5cnn(CC6CNC6)c5)n4)CC3)nc2)cc1 [Compound 51] |
| 1.01 to 10 | < 10 | 1.01 to 10 |  | Cc1c(Nc2ncnc(N3CCN(c4ncc(Cc5ccc(F)cc5)cn4)CC3)n2)cnn1C[C@@H]1CNCCO1 [Compound 271] |
| 1.01 to 10 | 10 to 100 | < 1 |  | Fc1ccc(Sc2cnc(N3CCN(c4ncnc(Nc5cnn(C[C@@H]6CNCCO6)c5)n4)CC3)nc2)cc1 [Compound 256] |
|  | 10 to 100 | < 1 | < 10 | COCCn1cc(Nc2ncnc(N3CCN(c4ncc(Cc5ccccc5)cn4)CC3)n2)cn1 [Compound 31] |
|  | 100 to 1000 | 1.01 to 10 | 11 to 100 | c1ccc(Cc2cnc(N3CCN(c4ncnc(Nc5cccc(CN6CCOCC6)c5)n4)CC3)nc2)cc1 [Compound 160] |
|  | 10 to 100 | < 1 | < 10 | c1ccc(Cc2cnc(N3CCN(c4ncnc(Nc5cnn(CC6CCOCC6)c5)n4)CC3)nc2)cc1 [Compound 118] |
| 1.01 to 10 |  |  |  | c1ccc(Cc2cnc(N3CCN(c4ncnc(Nc5cccc(O[C@@H]6CCNC6)c5)n4)CC3)nc2)cc1 [Compound 106] |
|  | 10 to 100 | < 1 | 11 to 100 | OC1(Cn2cc(Nc3ncnc(N4CCN(c5ncc(Cc6ccccc6)cn5)CC4)n3)cn2)CCNCC1 [Compound 182] |
